Consider 17 compounds from patent publication EP3057951B1, “METHYLENE LINKED QUINOLINYL MODULATORS OF ROR-GAMMA-T” (Janssen Pharmaceutica NV, priority 2013, dated 2015).

The target in assay [1] is T1, wild type human RORγt ligand binding domain (RORyt LBD) (Homo sapiens, UniProt P51449).
T1 construct: His-tag (N); TurboTEV protease cleavage site (ENLYFQG) (N); made in house; host or cells: E. coli (pHIS1, modified pET vector)
T1 sequence (P51449 258-518): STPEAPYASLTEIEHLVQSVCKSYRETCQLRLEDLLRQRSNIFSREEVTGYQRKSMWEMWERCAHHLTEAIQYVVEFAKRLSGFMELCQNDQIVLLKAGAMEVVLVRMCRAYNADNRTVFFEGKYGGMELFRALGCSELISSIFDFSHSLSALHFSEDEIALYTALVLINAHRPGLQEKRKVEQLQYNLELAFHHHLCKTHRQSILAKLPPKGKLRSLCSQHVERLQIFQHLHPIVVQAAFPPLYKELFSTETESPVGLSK
In words: RORγt ThermoFluor assay (thermal shift, binding affinity KD). A general note: DSF heats the sample and reads unfolding from a dye or from intrinsic fluorescence.

In assay [2] the target is T2, wild type human RORγt LBD (Homo sapiens, UniProt P51449).
T2 construct: expressed in transfected cells; host or cells: HEK293T
T2 sequence (P51449 258-518): T1 sequence (P51449 258-518)
The assay can be described thus: RORγt (LBD) Reporter Assay (GAL4-luciferase, HEK293T cells). The class given is cell-based. The note with it: for inhibition at 6 µM: HEK-293T, read-out: RORγt (LBD) Reporter Assay, % inhibition @ 6 µM, 6 µM compound concentration; for RORγt (LBD) Reporter Assay, % inhibition @ 6 µM: 6 µM compound concentration. A general note: A reporter such as luciferase makes a cellular process visible.

[3] abbreviates: HEK293T cells, value after the comma with ∼, > or < could not be included in the average.

“And” between values parts separate entries of the source, which are not always exact repeats. Equal values may be shown once. Where a name gives a salt, the structure may show the parent alone. Read-outs that look alike come from different tables or passages of the source.

The term Kd denotes the constant that tells how readily two partners part at equilibrium. Usually IC50 stands for the concentration that gives 50% inhibition. A low value points to higher potency. Turning to `Cn1cc(-c2nc3ccc(C(O)(c4ccc(C(F)(F)F)nc4)c4cncn4C)cc3c(Cl)c2Cc2ccccc2)cn1` (single isomer, unassigned) [Example 111b, (3-Benzyl-4-chloro-2-(1-methyl-1H-pyrazol-4-yl)quinolin-6-yl)(1-methyl-1H-imidazol-5-yl)(6-(trifluoromethyl)pyridin-3-yl)methanol], in assay [1], the equilibrium dissociation constant (Kd) was 1400 nM. In addition, in assay [2] (setting [3]), the IC50 was ~900 nM. In assay [2], the inhibition at 6 µM stood at 99%.

Turning to `COc1nc2ccc(C(O)(c3ccc(C)nc3C)c3cnnn3C)cc2c(Cl)c1Cc1ccc(C)cc1` (single isomer, unassigned) [Example 20b, (4-Chloro-2-methoxy-3-(4-methylbenzyl)quinolin-6-yl)(2,6-dimethylpyridin-3-yl)(1-methyl-1H-1,2,3-triazol-5-yl)methanol], the Kd in assay [1] amounted to 390 nM. Moreover, in assay [2] (setting [3]), half-maximal inhibition (IC50) required 1400 nM. For the same compound, the inhibition at 6 µM in assay [2] was 84%.

On to `Cc1cc(C(O)(c2ccc(C(F)(F)F)nc2)c2cncn2C)cc2c(Cl)c(Cc3ccc(-n4cccn4)cc3)c(N3CCC3)nc12` (single isomer, unassigned) [Example 137c, {2-Azetidin-1-yl-4-chloro-8-methyl-3-[4-(1H-pyrazol-1-yl)benzyl]quinolin-6-yl}(1-methyl-1H-imidazol-5-yl)[6-(trifluoromethyl)pyridin-3-yl]methanol], for which, in assay [1], the Kd stood at 4.5 nM. In assay [2] (HEK293T cells, 6 µM), the “RORγt (LBD) Reporter Assay, % inhibition @ 6 µM” value (shortened to “RORγt … % inhibition @ 6 µM”) turned out to be 94%. The compound further showed an IC50 in assay [2] (HEK293T cells) of 140 nM.

As for `Cn1cncc1C(O)(c1ccc(C(F)(F)F)nc1)c1ccc2nc(C(F)(F)F)c(Cc3ccccc3)c(C#N)c2c1` (stereo not drawn) [Example 108a, 3-Benzyl-6-(hydroxy(1-methyl-1H-imidazol-5-yl)(6-(trifluoromethyl)pyridin-3-yl)methyl)-2-(trifluoromethyl)quinoline-4-carbonitrile•TFA], in assay [1], the Kd amounted to 4.4 nM. In assay [2] (setting [3]), 30 nM corresponded to half-maximal inhibition (IC50). Also, the inhibition at 6 µM in assay [2] was found to be 90%.

For `COc1nc2ccc(C(O)(c3cnnn3C)c3cnc(C)n3C)cc2c(C#N)c1Cc1ccc(F)cc1` (single isomer, unassigned) [Example 66c, 6-((1,2-Dimethyl-1H-imidazol-5-yl)(hydroxy)(1-methyl-1H-1,2,3-triazol-5-yl)methyl)-3-(4-fluorobenzyl)-2-methoxyquinoline4-carbonitrile], the Kd in assay [1] came out at 2.2 nM. The “RORγt … % inhibition @ 6 µM” value in assay [2] (6 µM) was 90%. It took 2.6 nM to reach half-maximal inhibition in assay [2] (setting [3]) (IC50).

As to `COc1nc2ccc(C(O)(c3cncn3C)c3cnnn3C)cc2c(Cl)c1Cc1ccc(C(F)(F)F)cc1` (single isomer, unassigned) [Example 89c, (4-Chloro-2-methoxy-3-(4-(trifluoromethyl)benzyl)quinolin-6-yl)(1-methyl-1H-1,2,3-triazol-5-yl)(1-methyl-1H-imidazol-5-yl)methanol], the Kd in assay [1] came out at 0.26 nM. Besides, in assay [2], the “RORγt … % inhibition @ 6 µM” value was 97%. The IC50 in assay [2] (setting [3]) is < 2 nM.

Regarding `Cn1cncc1C(O)(c1ccc(Cl)cc1)c1ccc2nc(C(F)(F)F)c(Cc3ccccc3)c(O)c2c1` (stereo not drawn) [Example 102, 3-Benzyl-6-((4-chlorophenyl)(hydroxy)(1-methyl-1H-imidazol-5-yl)methyl)-2-(trifluoromethyl)quinolin4-ol•TFA], in assay [1], the Kd worked out at 1300 nM. Further, the half-maximal inhibitory concentration (IC50) in assay [2] (setting [3]) is 1900 nM. Besides, the inhibition at 6 µM in assay [2] was found to be 94%.

As to `COc1nc2ccc(C(O)(c3ccc(C)nc3C)c3cnnn3C)cc2c(Cl)c1Cc1ccc(C)cc1` (single isomer, unassigned) [Example 20c, (4-Chloro-2-methoxy-3-(4-methylbenzyl)quinolin-6-yl)(2,6-dimethylpyridin-3-yl)(1-methyl-1H-1,2,3-triazol-5-yl)methanol], the Kd in assay [1] came out at 0.62 nM. Besides, the “RORγt … % inhibition @ 6 µM” value in assay [2] (6 µM) came out at 93%. Moreover, in assay [2] (setting [3]), the IC50 was 57 nM and ~30 nM.

Consider `COc1nc2ccc(C(O)(c3ccc(C#N)cc3)c3cncn3C)cc2c(Cl)c1Cc1ccc(C(F)(F)F)nc1` (single isomer, unassigned) [Example 38c, 4-((4-Chloro-2-methoxy-3-((6-(trifluoromethyl)pyridin-3-yl)methyl)quinolin-6-yl)(hydroxy)(1-methyl-1H-imidazol-5-yl)methyl)benzonitrile], for which the Kd in assay [1] came to 5.2 nM. Moreover, the “RORγt … % inhibition @ 6 µM” value in assay [2] (6 µM) stood at 98%. Further, the IC50 in assay [2] (setting [3]) turned out to be 14 nM.

For `COc1nc2ccc(C(O)(c3cnnn3C)c3cnc(C)n3C)cc2c(C#N)c1Cc1ccc(C(F)(F)F)nc1` (single isomer, unassigned) [Example 44b, 6-((1,2-Dimethyl-1H-imidazol-5-yl)(hydroxy)(1-methyl-1H-1,2,3-triazol-5-yl)methyl)-2-methoxy-3-((6-(trifluoromethyl)pyridin-3-yl)methyl)quinoline-4-carbonitrile], in assay [1], the Kd was found to be 5.2 nM. In assay [2] (setting [3]), this compound gave an IC50 of 24 nM. Moreover, in assay [2], the inhibition at 6 µM was determined as 99%.

Take `Cn1cncc1C(O)(c1ccc(C(F)(F)F)nc1)c1ccc2nc(C(F)(F)F)c(Cc3ccccc3)c(C#N)c2c1` (single isomer, unassigned) [Example 108c, 3-Benzyl-6-(hydroxy(1-methyl-1H-imidazol-5-yl)(6-(trifluoromethyl)pyridin-3-yl)methyl)-2-(trifluoromethyl)quinoline-4-carbonitrile]: the Kd in assay [1] was 46 nM. Moreover, the “RORγt … % inhibition @ 6 µM” value in assay [2] (6 µM) was found to be 83%. For the same compound, the IC50 in assay [2] (setting [3]) was 960 nM and ~1000 nM.

In the case of `Cc1ccc(C(O)(c2ccc3nc(N4CCC4)c(Cc4ccc(C(F)(F)F)cc4)c(Cl)c3c2)c2cnnn2C)c(C)n1` (single isomer, unassigned) [Example 140c, {2-Azetidin-1-yl-4-chloro-3-[4-(trifluoromethyl)benzyl]quinolin-6-yl}(2,6-dimethylpyridin-3-yl)(1-methyl-1H-1,2,3-triazol-5-yl)methanol], in assay [1], the Kd was determined as 0.15 nM. Further, the “RORγt … % inhibition @ 6 µM” value in assay [2] (HEK293T cells, 6 µM) turned out to be 99%. Further, in assay [2] (HEK293T cells), the IC50 was 0.66 nM and ~1 nM.

For the compound `COc1nc2ccc(C(O)(c3ccc(C#N)cc3)c3cncn3C)cc2c(Cl)c1Cc1ccc(-n2cncn2)cc1` (stereo not drawn) [Example 14a, 4-((3-(4-(1H-1,2,4-Triazol-1-yl)benzyl)4-chloro-2-methoxyquinolin-6-yl)(hydroxy)(1-methyl-1H-imidazol-5-yl)methyl)benzonitrile], the Kd in assay [1] is 17 nM. Further, in assay [2] (setting [3]), the IC50 was found to be 42 nM. The inhibition at 6 µM in assay [2] is 105%.

In the case of `COc1nc2ccc(C(O)(c3ccccc3)C3CCN(C(C)=O)CC3)cc2c(Cl)c1Cc1ccc(-n2ccnc2)cc1` (stereo not drawn) [Example 16a, 1-(4-((3-(4-(1H-Imidazol-1-yl)benzyl)4-chloro-2-metboxyquinolin-6-yl)(hydroxy)(phenyl)methyl)piperidin-1-yl)ethanone], the Kd in assay [1] worked out at 8.4 nM. The compound also gave an IC50 in assay [2] (setting [3]) of 9.8 nM. The inhibition at 6 µM in assay [2] worked out at 101%.

`COc1nc2ccc(C(O)(c3ccc(C)nc3C)c3cnnn3C)cc2c(Cl)c1Cc1ccc(-n2cccn2)cc1` (single isomer, unassigned) [Example 17b, (3-(4-(1H-Pyrazol-1-yl)benzyl)-4-chloro-2-methoxyquinolin-6-yl)(2,6-dimethylpyridin-3-yl)(1-methyl-1H-1,2,3-triazol-5-yl)methanol]: in assay [1], the Kd was found to be 200 nM. This compound also showed an IC50 in assay [2] (setting [3]) of 660 nM. Moreover, in assay [2], the inhibition at 6 µM was found to be 97%.

Consider `Cc1ccc(C(O)(c2ccc3nc(N4CCC4)c(Cc4ccc(-n5cccn5)cc4)c(Cl)c3c2)c2cnnn2C)c(C)n1` (single isomer, unassigned) [Example 141c, {2-Azetidin-1-yl-4-chloro-3-[4-(1H-pyrazol-1-yl)benzyl]quinolin-6-yl}(2,6-dimethylpyridin-3-yl)(1-methyl-1H-1,2,3-triazol-5-yl)methanol], for which the Kd in assay [1] came out at 7100 nM. The “RORγt … % inhibition @ 6 µM” value in assay [2] (HEK293T cells, 6 µM) came to 5%. For the same compound, the IC50 in assay [2] (HEK293T cells) was > 6000 nM.

Take `Cn1cncc1C(O)(c1ccc(C(F)(F)F)nc1)c1ccc2nc(N3CCCC3)c(Cc3ccc(-n4cccn4)cc3)c(Cl)c2c1` (single isomer, unassigned) [Example 145b, {4-Chloro-3-[4-(1H-pyrazol-1-yl)benzyl]-2-pyrrolidin-1-ylquinolin-6-yl}(1-methyl-1H-imidazol-5-yl)[6-(trifluoromethyl)pyridin-3-yl]methanol]: in assay [1], the Kd is 80 nM. For the same compound, in assay [2] (HEK293T cells), the IC50 worked out at 230 nM and the inhibition at 6 µM is 102%.
